Legend:
[1] = PK of voruciclib, 2 weeks of daily dosing followed by 1 week without dosing in a 21-day cycle (Table 1); format: in vivo, human; conditions: mean
Solid Tumors [2] = test: Monotherapy Phase 1 study in solid tumors, daily continuously schedule; format: in vivo, human
[3] = PK of voruciclib, daily dosing continuously (Table 2); format: in vivo, human; conditions: mean; for Accumulation Ratio (AUC0-t): Day 15/Day 1
c-MYC expression = test: Gene biomarkers in Phase 1 daily dosing study: c-MYC expression in solid tumors; format: in vivo, human
Solid Tumors [4] = test: Monotherapy Phase 1 study in solid tumors, 2 weeks on/1 week off schedule; format: in vivo, human; conditions: 29 pts
clinical = conditions: human, in vivo
Source text: Voruciclib half-life is designated as t1/2 in the tables (expressed in hours). […] There is interpatient variability, explaining the outlier values.

Gelling in aqueous media = format: physicochemical
Experimental: Voruciclib can form a gel when dissolved in various media, depending on the other chemicals present. […] In general, voruciclib was more prone to gel at suspension concentrations >5 mg/mL and solubilities >0.5 mg/mL.

[5] = tested on: Relapsed/Refractory B-cell malignancies; Relapsed/Refractory AML; format: in vivo, human
Experimental: Study population: Relapsed/Refractory B-cell malignancies; Relapsed/Refractory AML; Dose escalation with standard 3+3 design.
Endpoints: Safety and tolerability, Pharmacokinetics, Biologic correlative studies (BH3 profiling, MCL-1 expression, molecular mutations analysis), Response rates.
Voruciclib single agent dose escalation: 50 mg>100 mg>150 mg>200 mg.
Differentiation syndrome seen in 5 pts (50%) (Increased WBC without increased in blasts, bone pain, pulmonary symptoms; Response to corticosteroids).

[6] = tested on: HCT-116 CRC cell xenograft; conditions: SCID, mouse, in vivo, po, 100 mg/kg
Experimental: Animals were randomized into 2 groups when tumors reached 100 mm diameter. Group A assigned single dosing. […] Drug concentration was measured in tumor and plasma after last dose at the following time points: 0, 4, 8, 24, 48, 72 hrs. […] Concentration of voruciclib in plasma is in units of μg/ml and in μg/g for tumors.

[7] = tested on: Venetoclax Sensitive and Resistant Cell Lines; test: Synergy with venetoclax in cell lines; format: cell-based; conditions: Ven Sensitive and Ven Resistant cell lines
Source text: FIG. 4A: Ven Sensitive; FIG. 4B: Ven Resistant.

[8] = Monotherapy Phase 1 studies in solid tumors: safety profile; format: in vivo, human; conditions: Phase 1 monotherapy

Compound: CN1CC[C@@H](c2c(O)cc(O)c3c(=O)cc(-c4ccc(C(F)(F)F)cc4Cl)oc23)[C@@H]1CO [Voruciclib, (+)-trans-2-(2-chloro-4-trifluoromethylphenyl)-5,7-dihydroxy-8-(2-hydroxymethyl-1-methylpyrrolidin-3-yl)-chromen-4-one]
- t½ ([1]; Day 1, 600 mg): 32.544 h
- AUC0-∞ ([1]; Day 13, 300 mg): 59331.780 ng·h/mL
- t½ ([1]; Day 13, 300 mg): 16.166 h
- t½ ([1]; Day 13, 850 mg): 22.380 h
- duration of SD, median (Solid Tumors [2]): 15 weeks
- t½ ([3]; Day 1, 75 mg): 21.776 h
- AUC0-∞ ([3]; Day 1, 150 mg): 15592.890 ng·h/mL
- AUC0-∞ ([3]; Day 1, 250 mg): 16383.699 ng·h/mL
- Cmax ([3]; Day 1, 250 mg): 471.955 ng/mL
- AUC0-24 ([3]; Day 1, 350 mg): 10388.095 ng·h/mL
- CL/F ([3]; Day 1, 350 mg): 4.224 L/h
- AUC0-24 ([3]; Day 1, 500 mg): 16370.472 ng·h/mL
- AUC0-t ([3]; Day 1, 500 mg): 16370.472 ng·h/mL
- CL/F ([3]; Day 1, 500 mg): 2.107 L/h
- Accumulation Ratio (AUC0-t) ([3]; 75 mg): 2.634
- Accumulation Ratio (AUC0-t) ([3]; 150 mg): 3.637
- Accumulation Ratio (AUC0-t) ([3]; 250 mg): 3.090
- Accumulation Ratio (AUC0-t) ([3]; 350 mg): 2.767
- Accumulation Ratio (AUC0-t) ([3]; 500 mg): 2.577
- AUC0-∞ ([3]; Day 15, 75 mg): 27200.362 ng·h/mL
- AUC0-24 ([3]; Day 15, 150 mg): 16642.661 ng·h/mL
- AUC0-t ([3]; Day 15, 150 mg): 16642.661 ng·h/mL
- AUC0-∞ ([3]; Day 15, 150 mg): 164073.250 ng·h/mL
- t½ ([3]; Day 15, 150 mg): 131.733 h
- Cmax ([3]; Day 15, 250 mg): 1047.832 ng/mL
- t½ ([3]; Day 15, 250 mg): 38.750 h
- AUC0-∞ ([3]; Day 15, 350 mg): 164113.625 ng·h/mL
- CL/F ([3]; Day 15, 350 mg): 1.607 L/h
- AUC0-24 ([3]; Day 15, 500 mg): 40465.337 ng·h/mL
- AUC0-t ([3]; Day 15, 500 mg): 40465.337 ng·h/mL
- AUC0-∞ ([3]; Day 15, 500 mg): 108301.704 ng·h/mL
- CL/F ([3]; Day 15, 500 mg): 1.031 L/h
- patients with decreased c-MYC expression / patients tested (c-MYC expression): 17/25
- PR (number of patients) (Solid Tumors [4]): 1
- additional time to clear from the tissue after it clears the plasma (clinical): 3 days
- half-life (clinical): 120 to 240 h
- solubility at which more prone to gel (Gelling in aqueous media): > 500 µg/mL
- suspension concentration at which more prone to gel (Gelling in aqueous media): > 5 mg/mL
- Gelling (Gelling in aqueous media; pH 1.6 (FaSSGF)): Gelling was observed
- Gelling (Gelling in aqueous media; pH 6.5 (FaSSIF)): Gelling was observed
- Differentiation syndrome (number of pts) ([5]; AML patients): 5
- Differentiation syndrome (share of pts) ([5]; AML patients): 50%
- Cmax and AUC dose dependence ([5]; human, in vivo): Dose proportional
- volume of distribution ([5]; human, in vivo): High
- GI toxicity or neutropenia ([5]; in vivo): No GI toxicity or neutropenia
- level in tumor at 8 hours compared to 24 hours post dosing [6]: > 5 fold
- synergy with Venetoclax [7]: Synergizes
- most common AEs [8]: involved GI tract
- myelosuppression [8]: no evidence of myelosuppression

Source: patent publication US20240197680A1, “VORUCICLIB DOSING REGIMENS AND METHODS OF TREATMENT INCLUDING THE SAME” (MEI Pharma, Inc., priority 2021, published 2024)
